# From ChEMBL document CHEMBL1201862, “PubChem BioAssay data set” (2004)
# Calls of active or inactive are those of the source.
# Experiments:
# [1] = target: T1, SUMO-activating enzyme (Homo sapiens, UniProt Q9UBT2); assay: inhibitors of in vitro SUMOylation cascade, primary screen, biochemical, HTRF, uHTS (AID 2006); format: protein-complex assay
# [2] = target: Aryl hydrocarbon receptor (Homo sapiens, UniProt P35869); assay: Luminescence-based cell-based high throughput dose response assay for activators of the Aryl Hydrocarbon Receptor (AHR). [Related pubchem assays: 2796 (Primary screen (AHR activators in singlicate)), 2845 (Confirmation screen (AHR activators in triplicate)), 434939 (Counterscreen (PXR activators in triplicate)), 2804 (Summary (AHR activators))]; format: ADME
# [3] = target: T1, SUMO-activating enzyme; assay: SUMOylation inhibitor hit validation, confirmation, SUMOylation inhibitor project, biochemical, AlphaScreen (AID 2018); format: functional
# [4] = target: T2, Rac GTPase-activating protein 1 (Homo sapiens, UniProt Q9H0H5); assay: MgcRacGAP GTPase-activating activity inhibitors, confirmation, biochemical, ADP Hunter fluorescence, primary and confirmatory (AID 624330); format: functional
# T2 sequence (Q9H0H5 whole entry): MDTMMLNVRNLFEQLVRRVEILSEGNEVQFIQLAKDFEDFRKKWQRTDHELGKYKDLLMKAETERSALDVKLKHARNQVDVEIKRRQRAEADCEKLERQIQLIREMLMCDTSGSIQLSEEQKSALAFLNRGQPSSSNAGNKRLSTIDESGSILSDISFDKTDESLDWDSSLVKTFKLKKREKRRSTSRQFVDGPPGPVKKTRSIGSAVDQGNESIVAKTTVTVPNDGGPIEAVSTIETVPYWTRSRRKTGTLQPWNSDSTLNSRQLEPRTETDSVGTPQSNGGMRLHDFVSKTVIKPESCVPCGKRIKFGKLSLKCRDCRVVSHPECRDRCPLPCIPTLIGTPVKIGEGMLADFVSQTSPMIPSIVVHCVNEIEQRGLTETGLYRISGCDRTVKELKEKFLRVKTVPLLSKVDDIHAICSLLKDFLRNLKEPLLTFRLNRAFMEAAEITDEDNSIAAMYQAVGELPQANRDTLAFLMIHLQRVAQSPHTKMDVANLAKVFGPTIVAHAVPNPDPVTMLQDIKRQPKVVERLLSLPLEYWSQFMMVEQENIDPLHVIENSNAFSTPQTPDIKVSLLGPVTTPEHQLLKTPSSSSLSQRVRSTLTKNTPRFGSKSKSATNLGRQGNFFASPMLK
# [5] = target: Troponin, cardiac muscle (Homo sapiens, UniProt P19429+P45379+P63316); assay: Fluorescence-based biochemical high throughput dose response assay for activators of the calcium sensitivity of cardiac Regulated Thin Filaments (RTF). [Related pubchem assays (depositor defined):AID493008, AID493018, AID504382, AID504383]; format: protein-complex assay
# [6] = target: Luciferin 4-monooxygenase (Photinus pyralis, UniProt P08659); assay: Counter Screen for Luciferase-based Assay Positives. [Related pubchem assays: 620, 618, 411 ]
# [7] = Late stage counterscreen results from the probe development effort to identify activators of signal transducer and activator of transcription 1 (STAT1): luminescence-based cell-based dose response assay to identify cytotoxic compounds.; format: functional
# [8] = tested on: HT-1080; assay: cytotoxicity in HT1080 fibrosarcoma cells, cell-based, fluorescence readout (AID 620); format: functional; settings: Homo sapiens
# [9] = target: T3, Estrogen receptor (Homo sapiens, UniProt P03372);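 also: potency for inhibiting coactivator peptide recruitment to the receptor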
# T3 sequence (P03372 whole entry): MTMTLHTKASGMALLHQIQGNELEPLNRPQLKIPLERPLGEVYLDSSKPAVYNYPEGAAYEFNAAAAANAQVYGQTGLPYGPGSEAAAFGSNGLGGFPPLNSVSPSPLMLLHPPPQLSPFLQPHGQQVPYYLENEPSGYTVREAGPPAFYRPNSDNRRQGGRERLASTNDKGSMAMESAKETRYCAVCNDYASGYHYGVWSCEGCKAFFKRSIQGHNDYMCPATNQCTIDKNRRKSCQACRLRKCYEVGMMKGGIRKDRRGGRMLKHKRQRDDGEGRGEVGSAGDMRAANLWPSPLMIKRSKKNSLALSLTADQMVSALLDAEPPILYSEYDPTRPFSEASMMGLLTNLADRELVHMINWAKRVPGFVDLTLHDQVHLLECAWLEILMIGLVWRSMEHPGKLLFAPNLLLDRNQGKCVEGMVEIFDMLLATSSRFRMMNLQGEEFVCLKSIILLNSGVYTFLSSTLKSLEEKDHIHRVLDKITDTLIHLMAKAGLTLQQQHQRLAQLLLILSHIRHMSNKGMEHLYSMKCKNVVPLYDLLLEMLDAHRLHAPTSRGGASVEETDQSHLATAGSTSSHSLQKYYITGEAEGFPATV
# [10] = target: Protein-tyrosine kinase 2-beta (Homo sapiens, UniProt Q14289);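 also: potency of inhibitors of PYK2 kinase phosphorylation of poly-GT substrate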
# [11] = target: T4, Estrogen receptor beta (Homo sapiens, UniProt Q92731);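 also: recombinant ER-beta bound to coactivator SRC1 peptide in presence of estradiol agonist; inhibitors block coactivator peptide binding and lower the FRET signal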
# [12] = target: T4, Estrogen receptor beta; assay: ERβ–SRC-3 coactivator interaction inhibitors, confirmation, orthogonal assay, biochemical, ELISA, streptavidin-HRP readout (AID 1060)
# [13] = target: Genome polyprotein (dengue virus type 2, UniProt P29990); assay: Dengue-2 NS5 methyltransferase inhibitors, primary screen, biochemical, confirmation dose response (AID 588689); format: functional
# [14] = target: Hepatocyte nuclear factor 4-alpha (Homo sapiens, UniProt P41235); format: functional, cell-based;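 also: biochemical luminescence-based dose-response counterscreen measuring inhibition of HNF4 dimerization, run alongside a screen for blockers of ABHD5–perilipin-5 interaction; split luciferase complementation of HNF4 fusion proteins in cell lysate measuring dimerization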
# [15] = Shn3 3'UTR reporter inhibitors, dose response, cell-based, Clone20 osteoblasts, firefly luciferase, cherry-picked (AID 624132); format: functional;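 also: firefly luciferase luminescence from reporter carrying the Shn3 3'UTR in osteoblasts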
# [16] = target: T5, Replicative DNA helicase DnaB (Mycobacterium tuberculosis, UniProt P9WMR3); assay: DnaB intein splicing inhibitors, dose response, biochemical, cell-free fluorescence (AID 449749); format: functional
# T5 sequence (P9WMR3 whole entry): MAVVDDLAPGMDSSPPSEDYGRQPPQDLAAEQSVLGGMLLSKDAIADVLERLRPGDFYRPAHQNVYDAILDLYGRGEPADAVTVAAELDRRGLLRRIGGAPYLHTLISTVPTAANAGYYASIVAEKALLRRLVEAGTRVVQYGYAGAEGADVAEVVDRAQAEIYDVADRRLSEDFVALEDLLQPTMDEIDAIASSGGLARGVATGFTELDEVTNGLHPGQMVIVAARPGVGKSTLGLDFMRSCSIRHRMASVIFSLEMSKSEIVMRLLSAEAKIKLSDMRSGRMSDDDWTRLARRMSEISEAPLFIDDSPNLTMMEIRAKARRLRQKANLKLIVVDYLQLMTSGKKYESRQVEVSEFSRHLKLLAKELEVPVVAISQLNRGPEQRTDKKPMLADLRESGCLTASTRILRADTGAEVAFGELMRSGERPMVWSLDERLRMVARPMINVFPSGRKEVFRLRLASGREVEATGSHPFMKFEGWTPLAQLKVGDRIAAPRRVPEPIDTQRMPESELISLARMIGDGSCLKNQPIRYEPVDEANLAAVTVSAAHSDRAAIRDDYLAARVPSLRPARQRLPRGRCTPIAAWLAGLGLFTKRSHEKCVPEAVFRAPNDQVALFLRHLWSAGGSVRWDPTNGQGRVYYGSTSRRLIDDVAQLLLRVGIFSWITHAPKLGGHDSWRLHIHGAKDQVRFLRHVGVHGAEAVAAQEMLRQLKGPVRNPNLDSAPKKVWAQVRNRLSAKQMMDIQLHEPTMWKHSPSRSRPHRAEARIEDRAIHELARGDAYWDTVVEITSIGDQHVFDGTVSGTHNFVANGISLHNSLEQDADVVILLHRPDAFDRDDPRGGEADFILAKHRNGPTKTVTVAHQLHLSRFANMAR
# [17] = reduction of Shn3 3'UTR firefly luciferase signal, dose response, Schnurri-3 inhibitor project, cell-based, Clone20 osteoblasts, cherry-pick, set 2 (AID 720490); format: functional;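 also: actives lower the luminescence signal as inhibitors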
# [18] = target: T6, Protein RecA (Mycobacterium tuberculosis, UniProt P9WHJ3); assay: Fluorescence Cell-Free Homogeneous Dose Retest to Identify Inhibitors of RecA-Intein Splicing Activity. [Related pubchem assays (depositor defined):AID2097, AID2223, AID489010, AID492950]; format: functional
# T6 sequence (P9WHJ3 whole entry): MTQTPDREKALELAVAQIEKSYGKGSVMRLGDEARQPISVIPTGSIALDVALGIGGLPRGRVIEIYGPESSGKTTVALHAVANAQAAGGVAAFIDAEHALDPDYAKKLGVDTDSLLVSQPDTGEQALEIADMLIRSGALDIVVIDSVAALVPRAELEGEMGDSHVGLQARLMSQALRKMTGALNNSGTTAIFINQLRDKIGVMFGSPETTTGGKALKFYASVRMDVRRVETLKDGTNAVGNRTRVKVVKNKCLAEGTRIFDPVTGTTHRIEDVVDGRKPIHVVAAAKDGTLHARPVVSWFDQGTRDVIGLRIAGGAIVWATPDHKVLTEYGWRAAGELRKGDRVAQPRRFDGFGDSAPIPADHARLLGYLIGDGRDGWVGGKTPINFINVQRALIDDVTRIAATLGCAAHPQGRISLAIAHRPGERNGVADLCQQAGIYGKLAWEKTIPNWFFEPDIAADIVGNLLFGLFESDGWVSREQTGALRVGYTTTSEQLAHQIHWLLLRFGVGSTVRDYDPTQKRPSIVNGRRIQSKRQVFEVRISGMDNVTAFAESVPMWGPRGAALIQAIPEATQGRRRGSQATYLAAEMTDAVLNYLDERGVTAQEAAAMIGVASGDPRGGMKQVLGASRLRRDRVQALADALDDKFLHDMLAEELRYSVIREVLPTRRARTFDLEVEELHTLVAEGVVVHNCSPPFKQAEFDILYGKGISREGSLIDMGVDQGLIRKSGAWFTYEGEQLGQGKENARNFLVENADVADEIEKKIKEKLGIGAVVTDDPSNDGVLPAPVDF
# [19] = target: Potassium voltage-gated channel subfamily KQT member 2 (Rattus norvegicus, UniProt O88943, W236L); assay: KCNQ2 channel potentiators, dose response, mechanism study for KCNQ2 potentiator project, cell-based, automated electrophysiology (AID 2603); format: functional
# [20] = target: Transitional endoplasmic reticulum ATPase (Homo sapiens, UniProt P55072); assay: Luminescence dose response biochemical high throughput screening assay for inhibitors of the p97 ATPase: synthesized compounds. [Related pubchem assays: 1481, 1517 ]
# [21] = target: Transitional endoplasmic reticulum ATPase (Homo sapiens, UniProt P55072, C522A); assay: Luminescence counterscreen assay for p97 inhibitors: dose response biochemical high throughput screening assay to identify inhibitors of the C522A mutant p97 ATPase: synthesized compounds. [Related pubchem assays: 1481, 1517, 1551 ]
# [22] = M. tuberculosis H37Rv growth inhibitors, H37Rv strain (AID 1626); format: functional
# [23] = target: Voltage-gated inwardly rectifying potassium channel KCNH2 (Homo sapiens, UniProt Q12809); assay: hERG protection from proarrhythmic block, potency, dose response, cell-based, thallium flux (AID 2121); format: ADME
# [24] = target: T7, Calpain-2 catalytic subunit (Sus scrofa, UniProt P43367); assay: pig calpain II inhibitor potency, dose response, biochemical, fluorogenic peptide substrate (AID 1420); format: functional
# T7 sequence (P43367 whole entry): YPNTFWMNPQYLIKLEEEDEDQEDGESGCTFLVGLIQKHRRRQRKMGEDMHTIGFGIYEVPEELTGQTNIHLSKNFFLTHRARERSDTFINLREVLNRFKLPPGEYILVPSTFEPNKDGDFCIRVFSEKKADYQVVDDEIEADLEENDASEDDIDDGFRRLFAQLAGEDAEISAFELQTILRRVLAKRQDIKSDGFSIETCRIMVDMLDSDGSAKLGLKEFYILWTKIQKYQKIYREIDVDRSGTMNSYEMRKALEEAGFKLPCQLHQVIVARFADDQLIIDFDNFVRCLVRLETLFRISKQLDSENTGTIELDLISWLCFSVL
# [25] = target: 5-hydroxytryptamine receptor 1A (Homo sapiens, UniProt P08908); format: functional
structure (smiles),measurement,setting,value
O=c1[nH]/c(=N\c2ccc(Br)cc2)sc2ccc([N+](=O)[O-])cc12,IC50,[1],15.9 µM (active)
same,EC50,[2],5.11 µM (active)
same,IC50,[3],34.6 µM (active)
N#C/C(=C\c1ccc(N2CCOCC2)o1)c1nc2ccccc2[nH]1,IC50,[4],12.2 µM (active)
same,EC50,[5],0.5 µM (active)
same,EC50,[6],> 100 µM (not active)
same,IC50,[7],> 55.7 µM (not active)
same,EC50,[8],> 50 µM (not active)
CC(=O)c1ccc(NCC(=O)N2CCN(c3ccccc3)CC2)cc1,IC50,[9],5.02 µM (active)
same,IC50,[10],> 69.5 µM (not active)
same,IC50,[11],2.64 µM (active)
same,IC50,[12],37.1 µM (not active)
CCSc1nnc(NC(=O)c2nc(S(=O)(=O)Cc3ccc(F)cc3)ncc2Cl)s1,IC50,[13],41.5 µM (active)
same,IC50,[14],5.51 µM (active)
same,AC50,[15],4.96 µM (active)
same,AC50,[16],0.419 µM (inconclusive)
same,AC50,[17],1.68 µM (active)
same,EC50,[18],1.08 µM (inconclusive)
same,EC50,[19],38.9 µM (active)
N#Cc1ccc(Nc2nc(-c3cccc(Br)c3)cs2)cc1,IC50,[20],> 50 µM (not active)
same,IC50,[21],> 50 µM (not active)
Cn1cc(CN2CCN(c3ccc(Cl)cn3)CC2)c(-c2ccccc2F)n1,IC50,[22],> 100 µM (active)
S=c1[nH]nc(CSc2nc3ccccc3s2)n1C1CCCCC1,EC50,[23],9.55 µM (active)
same,IC50,[24],14.3 µM (not active)
C1=C(c2c[nH]c3ccccc23)CCNC1,EC50,[25],> 50 µM (not active)
